From patent US9873702B2, “Heterocyclic compounds as biogenic amine transport modulators” (Southern Research Institute, priority 2014, dated 2018)
“Also recorded” adds a separate entry of the source. Like-named read-outs stand apart in the source and are kept apart here.

Target: dopamine transporter (DAT) (Rattus norvegicus, UniProt P23977)
Experiment: Dopamine reuptake ([^3H]dopamine uptake) inhibition in rat brain synaptosomes
Conditions: for efficacy of [^3H]DA (DAT) uptake inhibition, in words: partial versus full inhibition
[1] = DA Uptake EC50 (nM ± SD), rat caudate synaptosomes, 5 nM [^3H]dopamine, 15 min, 25° C., three experiments pooled
[2] = read-out: DA Uptake Emax (% I ± SD)
[3] = One-Site IC50 (nM), [^3H]DA uptake dose-response curve fit to one-component equation
[4] = Two-Site IC50-1 (nM), [^3H]DA uptake dose-response curve fit to two-component equation, component 1
[5] = Two-Site IC50-2 (nM), [^3H]DA uptake dose-response curve fit to two-component equation, component 2
[6] = read-out: Two-Site Emax-1 (% I)
[7] = read-out: Two-Site Emax-2 (% I)

Sequence of dopamine transporter (DAT) (P23977 whole entry): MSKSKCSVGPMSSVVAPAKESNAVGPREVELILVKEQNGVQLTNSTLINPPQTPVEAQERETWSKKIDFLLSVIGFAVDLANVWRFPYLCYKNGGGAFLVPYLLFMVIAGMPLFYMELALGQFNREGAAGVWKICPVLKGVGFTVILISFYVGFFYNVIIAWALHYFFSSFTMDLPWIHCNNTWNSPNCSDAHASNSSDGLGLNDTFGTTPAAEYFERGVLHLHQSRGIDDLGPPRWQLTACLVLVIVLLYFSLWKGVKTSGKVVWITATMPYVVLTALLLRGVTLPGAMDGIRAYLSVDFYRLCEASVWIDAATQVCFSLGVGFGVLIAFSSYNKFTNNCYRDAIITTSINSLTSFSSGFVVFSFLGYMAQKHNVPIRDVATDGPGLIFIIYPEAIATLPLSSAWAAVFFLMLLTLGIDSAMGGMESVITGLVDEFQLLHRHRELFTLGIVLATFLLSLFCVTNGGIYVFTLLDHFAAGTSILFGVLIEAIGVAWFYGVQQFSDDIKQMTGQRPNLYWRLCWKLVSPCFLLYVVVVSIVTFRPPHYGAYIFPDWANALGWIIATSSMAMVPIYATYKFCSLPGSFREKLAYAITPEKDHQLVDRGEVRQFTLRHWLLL

Row | Compound | IC50 [1] [nM] | Emax [2] [%] | also measured
1 | COCc1c[nH]c2ccc(-c3nc(NCC(c4ccccc4)c4ccccc4)c4ccccc4n3)cc12 [compound 116, N-(2,2-Diphenylethyl)-2-(3-(Methoxymethyl)-1H-Indol-5-yl)Quinazolin-4-Amine] | 165 ± 15 | 69 ± 1 | –
2 | c1ccc(C(CNc2nc(-c3cccn4ccnc34)nc3ccccc23)c2ccccc2)cc1 [compound 147, N-(2,2-Diphenylethyl)-2-(Imidazo[1,2-A]pyridin-8-yl)Quinazolin-4-Amine] | 92 ± 21 | 92 ± 4 | –
3 | c1ccc2c(NCC(c3ccncc3)c3ccncc3)nc(-c3cnc4nccn4c3)nc2c1 [compound 176, N-(2,2-Di(Pyridin-4-yl)Ethyl)-2-(Imidazo[1,2-A]Pyrimidin-6-yl)Quinazolin-4-Amine] | 299 ± 45 | 70 ± 2 | –
4 | c1ccc(C(Nc2nc(N3CCCCC3)nc3ccccc23)c2ccccc2)cc1 [compound 3, N-Benzhydryl-2-(piperidin-1-yl)quinazolin-4-amine] | 150 | 100 | –
5 | c1ccc(C(CNc2nc(-c3cnc4nccn4c3)nc3ccccc23)c2cccnc2)cc1 (centres unmarked) [compound 134, 2-(Imidazo[1,2-A]Pyrimidin-6-yl)-N-(2-Phenyl-2-(Pyridin-3-yl)Ethyl)Quinazolin-4-Amine] | 31 ± 7 | 72 ± 3 | –
6 | FC(F)(F)c1cc2nccn2cc1-c1nc(NCC(c2ccccc2)c2ccccc2)c2ccccc2n1 [compound 200, N-(2,2-Diphenylethyl)-2-(7-(Trifluoromethyl)Imidazo[1,2-a]Pyridin-6-yl)Quinazolin-4-Amine] | 2.3 ± 0.3 | 74 ± 2 | –
7 | CN(C)c1ccc(-c2nc(NCC(c3ccccc3)N3CCOCC3)c3ccccc3n2)cc1 (centres unmarked) [SRI-30835] | – | – | IC50 [3]: 15 ± 7 nM; IC50 [4]: 6 ± 0.9 nM; IC50 [5]: 4000 ± 1330 nM; efficacy of [^3H]DA (DAT) uptake inhibition, in words: partially inhibit; Emax (read-out: One-Site Emax (% I)): 75 ± 5%; Emax [6]: 57 ± 2%; Emax [7]: 42 ± 4%
8 | Cc1c(-c2nc(NCC(c3ccccc3)c3ccccc3)c3ccccc3n2)ccc2nccn12 [compound 195, N N-(2,2-Diphenylethyl)-2-(5-Methylimidazo[1,2-A]Pyridin-6-yl)Quinazolin-4-Amine] | 34 ± 6 | 74 ± 2 | –
9 | c1ccc(C(CNc2nc(-c3ccc4nccn4c3)nc3ccccc23)n2ccnc2)cc1 (centres unmarked) [compound 115, N-(2-(1H-Imidazol-1-yl)-2-Phenylethyl)-2-(Imidazo[1,2-A]Pyridin-6-yl)Quinazolin-4-Amine] | 83 ± 27 | 58 ± 3 | –
10 | c1ccc(C(CCNc2nc(-c3cccnc3)nc3ccccc23)c2ccccc2)cc1 [compound 1, N-(3,3-Diphenylpropyl)-2-(pyridin-3-yl)quinazolin-4-amine] | 443 ± 88 | 82 ± 3 | –
11 | Cc1ccc(-c2nc(NCC(c3ccccc3)c3ccccc3)c3ccccc3n2)c2nccn12 [compound 197, N-(2,2-Diphenylethyl)-2-(5-Methylimidazo[1,2-A]pyridin-8-yl)Quinazolin-4-Amine] | 208 ± 34 | 92 ± 3 | –
12 | c1ccc(C(CNc2nc(-c3cnc4ccnn4c3)nc3ccccc23)c2ccccc2)cc1 [compound 199, N-(2,2-Diphenylethyl)-2-(Pyrazolo[1,5-a]Pyrimidin-6-yl)Quinazolin-4-Amine] | 9.1 ± 2.1 | 73 ± 3 | –
13 | Cc1cc2nccn2cc1-c1nc(NCC(c2ccccc2)N(C)C)c2ccccc2n1 (centres unmarked) [compound 196, N1,N1-Dimethyl-N2-(2-(7-Methylimidazo[1,2-A]Pyridin-6-yl)Quinazolin-4-yl)-1-Phenylethane-1,2-Diamine] | 14 ± 5 | 77 ± 4 | –
14 | c1ccc(C(CCNc2nc(-c3ccsc3)nc3ccccc23)c2ccccc2)cc1 [compound 5, N-(3,3-Diphenylpropyl)-2-(thiophen-3-yl)quinazolin-4-amine] | 416 ± 22 | 83 ± 1 | –
15 | CN1CCN(C(CNc2nc(-c3cnc4nccn4c3)nc3ccccc23)c2ccccc2)CC1 (centres unmarked) [compound 129, 2-(Imidazo[1,2-A]Pyrimidin-6-yl)-N-(2-(4Methylpiperazin-1-yl)-2-Phenylethyl)Quinazolin-4-Amine] | 49 ± 9 | 71 ± 2 | –
16 | c1ccc(C(CNc2nc(-c3ccc4c(c3)CCN4)nc3ccccc23)c2ccccc2)cc1 [compound 84, N-(2,2-Diphenylethyl)-2-(Indolin-5-yl)Quinazolin-4-Amine] | – | 75 ± 3 | IC50 [3]: 18 ± 4 nM; IC50 [4]: 1.8e+06 nM; IC50 [5]: 1.8e+06 nM; efficacy of [^3H]DA (DAT) uptake inhibition, in words: partially inhibit; also recorded: partial inhibitors; Emax (read-out: One-Site Emax (% I)): 75 ± 3%; Emax [6]: 37%; Emax [7]: 37%
17 | c1ccc(C(CNc2nc(N3CCCCC3)nc3ccccc23)c2ccccc2)cc1 [compound 4, N-(2,2-Diphenylethyl)-2-(piperidin-1-yl)quinazolin-4-amine] | 60 | 100 | –
18 | c1ccc(C(CNc2nc(-c3cccnc3)nc3ccccc23)c2ccccc2)cc1 [compound 2, N-(2,2-Diphenylethyl)-2-(pyridin-3-yl)quinazolin-4-amine] | 480 | 100 | –
19 | Cc1cc2nccn2cc1-c1nc(NCC(c2ccccc2)C2CCCC2)c2ccccc2n1 (centres unmarked) [compound 194, N-(2-Cyclopentyl-2-Phenylethyl)-2-(7-Methylimidazo[1,2-A]pyridin-6-yl)Quinazolin-4-Amine] | 1.6 ± 0.3 | 74 ± 2 | –
20 | c1ccc(C(CNc2nc(-c3ccc4nccn4c3)nc3ccccc23)c2ccncc2)cc1 (centres unmarked) [compound 106, 2-(Imidazo[1,2-A]Pyridin-6-yl)-N-(2-Phenyl-2-(Pyridin-4-yl)Ethyl)Quinazolin-4-Amine] | 11 ± 2 | 77 ± 2 | –
21 | Nc1ncc(-c2nc(NCC(c3ccccc3)c3ccccn3)c3ccccc3n2)cn1 (centres unmarked) [compound 95, 2-(2-Aminopyrimidin-5-yl)-N-(2-Phenyl-2-(Pyridin-2-yl)Ethyl)Quinazolin-4-Amine] | 385 ± 89 | 72 ± 4 | –
22 | Cc1cc2nccn2cc1-c1nc(NCC(c2ccc(F)cc2)c2ccc(F)cc2)c2ccccc2n1 [compound 203, N-(2,2-Bis(4-Fluorophenyl)Ethyl)-2-(7-Methylimidazo[1,2-a]Pyridin-6-yl)Quinazolin-4-Amine] | 1.7 ± 0.2 | 72 ± 1 | –
23 | CN(C)c1ccc(-c2nc(NCCc3ccccc3)c3ccccc3n2)cc1 [SRI-31335] | – | – | IC50 [3]: 156 ± 12 nM; IC50 [4]: 99 ± 63 nM; IC50 [5]: 564 ± 1180 nM; efficacy of [^3H]DA (DAT) uptake inhibition, in words: fully inhibits; also recorded: full-efficacy [^3H]DA uptake inhibitors; Emax (read-out: One-Site Emax (% I)): 100 ± 1.5%; Emax [6]: 76 ± 54%; Emax [7]: 27 ± 53%
24 | c1ccc(C(CNc2nc(-c3ccc4nccn4c3)nc3ccccc23)c2ncccn2)cc1 (centres unmarked) [compound 103, 2-(Imidazo[1,2-A]Pyridin-6-yl)-N-(2-Phenyl-2-(Pyrimidin-2-yl)Ethyl)Quinazolin-4-Amine] | 553 ± 82 | 73 ± 2 | –
25 | c1ccc(C(CNc2nc(-c3c[nH]c4ccccc34)nc3ccccc23)c2ccccc2)cc1 [compound 82, N-(2,2-Diphenylethyl)-2-(1H-Indol-3-yl)Quinazolin-4-Amine] | 239 ± 84 | 93 ± 7 | –
26 | c1ccc(C(CNc2nc(-c3cnc4nccn4c3)nc3ccccc23)N2CCOCC2)cc1 (centres unmarked) [compound 128, 2-(Imidazo[1,2-A]Pyrimidin-6-yl)-N-(2-Morpholino-2-Phenylethyl)Quinazolin-4-Amine] | 55 ± 10 | 69 ± 2 | –
